# Experimental data: patent US7550492B2, “Benzo[1,2,5]thiadiazole compounds” (Janssen Pharmaceutica N.V., priority 2003, dated 2009)
# Structures can show the parent of a compound that is named as a salt.
# Key:
# CCK2 receptor = biological target: T1, CCK2 receptor (Homo sapiens, UniProt P32239); experiment: Binding Assay: competition with [125I]-BH-CCK-8S in HEKZFP cell membranes; details: 60 min at 21±3° C., Cheng-Prusoff
# T1 construct: Membranes were prepared from the HEKZFP cells after induction; endogenous in cells
# T1 sequence (P32239 1-447): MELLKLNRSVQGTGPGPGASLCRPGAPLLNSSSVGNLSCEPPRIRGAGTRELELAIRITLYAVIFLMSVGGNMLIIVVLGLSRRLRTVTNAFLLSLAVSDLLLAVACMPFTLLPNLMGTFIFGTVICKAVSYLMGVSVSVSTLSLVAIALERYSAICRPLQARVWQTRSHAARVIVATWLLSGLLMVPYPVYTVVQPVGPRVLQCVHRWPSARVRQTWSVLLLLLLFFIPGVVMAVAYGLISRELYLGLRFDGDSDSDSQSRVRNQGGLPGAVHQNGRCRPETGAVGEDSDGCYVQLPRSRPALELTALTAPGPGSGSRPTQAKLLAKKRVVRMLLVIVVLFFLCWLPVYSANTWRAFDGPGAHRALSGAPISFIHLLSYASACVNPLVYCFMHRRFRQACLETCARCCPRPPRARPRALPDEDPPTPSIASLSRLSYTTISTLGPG
# Method: Zinc Finger Proteins (ZFP) specific for the CCK2R gene were identified by Sangamo Biosciences. The ZFP domain was fused with the herpes simplex virus VP16 activation domain, and the fusion protein was subsequently cloned into the pcDNA3 mammalian expression vector (Invitrogen, San Diego, Calif.). Tet-inducible cell lines expressing the coding region from the ZFP vector were created using the T-REx-293™ cell line (Invitrogen). After 2 weeks of selection in culture medium containing […] Zeocin (Invitrogen), sixty drug-resistant stable clones were isolated and analyzed for ZFP expression as well as CCK2R induction upon addition of doxycycline to the culture medium. The cell line with the most appropriate CCK2R ZFP construct was used in all further assays and was termed the HEKZFP cell line.
# HEKZFP cells were grown in DMEM supplemented with L-glutamine (2 mM), penicillin (50 units/mL) and streptomycin (50 μg/mL) and 10% FBS (v/v). HEKZFP cells were treated with […] doxycycline (Sigma-Aldrich, MO; USA) for 2 days to de-repress the tet-regulated expression of the CCK2 receptor selective zinc finger proteins and were harvested using a rubber cell scraper.
# Membranes were prepared from the HEKZFP cells after induction. Frozen cell pellets (−40° C.) were thawed in 14 mL of buffer A (10 mM HEPES, 130 mM NaCl, 4.7 mM KCl, 5 mM MgCl, 1 mM EGTA and 15.4 mg/100 mL bacitracin at pH 7.2), adapted from E. A. Harper et al. (Br. J. Pharmacol. (1996) 118(7):1717-1726). The thawed pellets were homogenized using a Polytron PT-10 (7×1 s). The homogenates were centrifuged for 5 min at 1500 rpm (600×g), and the resulting pellets were discarded. The supernatants were re-centrifuged in order to collect the receptor-membrane pellets (25 min 15,000 rpm; 39,000×g), which were re-suspended in buffer A.
# All assays were conducted in 96-well plate (GF/B millipore filter plates) using buffer A. For the optimal cell number determination experiments, cells in concentrations ranging from 2.5×10^5 to 12.5×10^5 cells/well were incubated with 20 pM [^125I]-BH-CCK-8S (50 μL 60 pM) solution) in a total volume of 150 μL. Total binding of [^125I]-BH-CCK-8S was determined in the presence of 15 μL of buffer A. Non-specific binding of [^125I]-BH-CCK-8S was determined in the presence of 15 μL of 10 μM YF476, a CCK-2 receptor selective antagonist that is structurally unrelated to the radioligand [^125I]-BH-CCK-8S. The assay preparation was incubated for 1 h at 21±3° C., and then the assay was terminated by rapid filtration of the preparation under reduced pressure. The loaded filters were washed three times using undiluted PBS (100 μL), and then 100 μL of scintillation fluid was added to the filter plate. Bound radioactivity was determined using a Topcount (Packard BioScience, Meriden, Conn.) with a count time of 1 min. From these experiments a cell concentration of 1 pellet in 15 mL of buffer was chosen for use in other assays. To validate the radioligand concentration and incubation time for the assay, saturation and kinetic binding studies were also conducted (see M. F. Morton, The Pharmacological Characterization of Cholecystokinin Receptors in the Human Gastrointestinal Tract. PhD Thesis, University of London, 2000). […] The assay was then terminated according to the procedure outlined above.
# The pKi values were determined using the equation of Y.-C. Cheng and W. H. Prusoff (Biochem. Pharmacol., 1973, 22(23):3099-3108):
# To circumvent problems associated with computer-assisted data analysis of compounds with low affinity, the data obtained in the current study were weighted according to a method described by Morton. In brief, 100% and 0% specific binding were defined independently using total binding and binding obtained in the presence of a high concentration of the reference antagonist, 2-NAP.
Structure (SMILES),pKi (CCK2 receptor),Ki (CCK2 receptor) [nM],melting point [°C]
"O=C(c1ccc([N+](=O)[O-])cc1NS(=O)(=O)c1cccc2nsnc12)N1CCCCC1 [Example 2, Benzo[1,2,5]thiadiazole-4-sulfonic acid [5-nitro-2-(piperidine-1-carbonyl)-phenyl]-amide]",6.8,,
"O=C(c1cc2ccccc2cc1NS(=O)(=O)c1cccc2nsnc12)N1CCCCC1 [Example 4, Benzo[1,2,5]thiadiazole-4-sulfonic acid [3-(piperidine-1-carbonyl)-naphthalen-2-yl]-amide]",,100,
"O=C(c1ccc(I)cc1NS(=O)(=O)c1cccc2nsnc12)N1CCCCC1 [Example 6, Benzo[1,2,5]thiadiazole-4-sulfonic acid [5-iodo-2-(piperidine-1-carbonyl)-phenyl]-amide]",,3.98,
"O=C(c1ccc(-c2cccs2)cc1NS(=O)(=O)c1cccc2nsnc12)N1CCCCC1 [Example 22, Benzo[1,2,5]thiadiazole-4-sulfonic acid [2-(piperidine-1-carbonyl)-5-thiophen-2-yl-phenyl]-amide]",,200,
"O=C(c1cc(Cl)c(Cl)cc1NS(=O)(=O)c1cccc2nsnc12)N1CCCCC1 [Example 36, Benzo[1,2,5]thiadiazole-4-sulfonic acid [4,5-dichloro-2-(piperidine-1-carbonyl)-phenyl]-amide]",7.8,,178 to 179
"CC(C)c1ccc(C(=O)N2CCCCC2)c(NS(=O)(=O)c2cccc3nsnc23)c1 [Example 37, Benzo[1,2,5]thiadiazole-4-sulfonic acid [5-isopropyl-2-(piperidine-1-carbonyl)-phenyl]-amide]",,,125 to 127
"CN(C)CC(c1ccccc1)N(C)C(=O)c1ccc(Cl)cc1NS(=O)(=O)c1cccc2nsnc12 (stereo not drawn) [Example 48, 2-(Benzo[1,2,5]thiadiazole-4-sulfonylamino)-4-chloro-N-(2-dimethylamino-1-phenyl-ethyl)-N-methylbenzamide TFA salt]",,398,
"CN(C(=O)c1ccc(Cl)cc1NS(=O)(=O)c1cccc2nsnc12)c1ccccc1 [Example 58, 2-(Benzo[1,2,5]thiadiazole-4-sulfonylamino)-4-chloro-N-methyl-N-phenyl-benzamide]",,126,
"CCCCNC(=O)c1ccc(Cl)cc1NS(=O)(=O)c1cccc2nsnc12 [Example 59, 2-(Benzo[1,2,5]thiadiazole-4-sulfonylamino)-N-butyl-4-chloro-benzamide]",,631,
"CC1CCCCN1C(=O)c1ccc(Cl)cc1NS(=O)(=O)c1cccc2nsnc12 (stereo not drawn) [Example 70, Benzo[1,2,5]thiadiazole-4-sulfonic acid [5-chloro-2-(2-methyl-piperidine-1-carbonyl)-phenyl]-amide]",7.5,,
"O=C(c1ccc(Cl)cc1NS(=O)(=O)c1cccc2nsnc12)N1CCSC1 [Example 79, Benzo[1,2,5]thiadiazole-4-sulfonic acid [5-chloro-2-(thiazolidine-3-carbonyl)-phenyl]-amide]",7.1,,
"CC(c1ccc(F)cc1)N(C)C(=O)c1ccc(I)cc1NS(=O)(=O)c1cccc2nsnc12 (stereo not drawn) [Example 105, 2-(Benzo[1,2,5]thiadiazole-4-sulfonylamino)-N-[1-(4-fluoro-phenyl)-ethyl]-4-iodo-N-methyl-benzamide]",,10,
"CN(Cc1ccc(F)cc1F)C(=O)c1ccc(Br)cc1NS(=O)(=O)c1cccc2nsnc12 [Example 111, 2-(Benzo[1,2,5]thiadiazole-4-sulfonylamino)-4-bromo-N-(2,4-difluoro-benzyl)-N-methyl-benzamide]",,15.8,
"CC(c1ccc(F)cc1)N(C)C(=O)c1ccc(Br)cc1NS(=O)(=O)c1cccc2nsnc12 (stereo not drawn) [Example 112, 2-(Benzo[1,2,5]thiadiazole-4-sulfonylamino)-4-bromo-N-[1-(4-fluoro-phenyl)-ethyl]-N-methyl-benzamide]",,5.01,
"CON(C)C(=O)c1ccc(Br)cc1NS(=O)(=O)c1cccc2nsnc12 [Example 117, 2-(Benzo[1,2,5]thiadiazole-4-sulfonylamino)-4-bromo-N-methoxy-N-methyl-benzamide]",,398,
"C[C@H](c1ccccc1)N(C)C(=O)c1cc(Cl)ccc1NS(=O)(=O)c1cccc2nsnc12 [Example 118, (R)-2-(Benzo[1,2,5]thiadiazole-4-sulfonylamino)-5-chloro-N-methyl-N-(1-phenyl-ethyl)-benzamide]",,126,
"O=C(c1ccc(I)cc1NS(=O)(=O)c1cccc2nsnc12)N1CCOCC1 [Example 138, Benzo[1,2,5]thiadiazole-4-sulfonic acid [5-iodo-2-(morpholine-4-carbonyl)-phenyl]-amide]",7.5,,
C[C@@H](NC(=O)c1ccc(Br)cc1NS(=O)(=O)c1cccc2nsnc12)c1ccc(F)cc1F [Example 155],,25.1,
"Cc1ccc(C(=O)N[C@H](C)c2ccc(F)cc2F)c(NS(=O)(=O)c2cccc3nsnc23)c1 [Example 167, (R)-2-(Benzo[1,2,5]thiadiazole-4-sulfonylamino)-N-[1-(2,4-difluoro-phenyl)-ethyl]-4-methyl-benzamide]",,25.1,
"C[C@H](c1ccccc1)N(C)C(=O)c1ccc(C(F)(F)F)cc1NS(=O)(=O)c1cccc2nsnc12 [Example 195, (R)-2-(Benzo[1,2,5]thiadiazole-4sulfonylamino)-N-methyl-N-(1-phenyl-ethyl)-4-trifluoromethyl-benzamide]",,7.94,
